From patent EP0498331B1, “N-(aryloxyalkyl)heteroaryl-8-azabicyclo(3.2.1)octanes, intermediates and a process for the preparation thereof and their use as medicaments” (HOECHST-ROUSSEL PHARMACEUTICALS INCORPORATED, priority 1991, dated 1992)
Where a name gives a salt, the structure may show the parent alone. Read-outs that look alike come from different tables or passages of the source.

Legend:
[1] = system: CK-1 male mice; assay: climbing mice assay (antagonism of apomorphine-induced climbing); assay type: in vivo; details: Mus musculus, ip, read-out: CLIMBING MOUSE ASSAY (ED₅₀ mg/kg, ip)
Procedure: The compounds of the present invention are useful for treating psychoses by virtue of their ability to elicit an antipsychotic response in animals. Antipsychotic activity is determined in the climbing mice assay by a method similar to those described by P. Protais, et al., Psychopharmacol., 50:1(1976) and B. Costall, Eur. J. Pharmacol., 50:39 (1978).
Subject CK-1 male mice (23-27 grams) are grouped-housed under standard laboratory conditions. The mice are individually placed in wire mesh stick cages (4" X 10") and are allowed one hour for adaption and exploration of the new environment. Then apomorphine is injected subcutaneously at 1.5 mg/kg, a dose causing climbing in all subjects for 30 minutes. Compounds to be tested for antipsychotic activity are injected intraperitoneally or given oral doses at various time intervals, e.g. 30 minutes, 60 minutes, etc. prior to the apomorphine challenge at a screening dose of 10-60 mg/kg.
For evaluation of climbing, 3 readings are taken at 10, 20 and 30 minutes after apomorphine administration according to the following scale:
Mice consistently climbing before the injection of apomorphine are discarded.
With fully-developed apomorphine climbing, the animals are hanging on to the cage walls, rather motionless, over longer periods of time. By contrast, climbs due to mere motor stimulation usually only last a few seconds.
The climbing scores are individually totaled (maximal score: 6 per mouse over 3 readings) and the total score of the control group (vehicle intraperitoneally-apomorphine subcutaneously) is set to 100%. ED₅₀ values with 95% confidence limits, calculated by a linear regression analysis, of representative compounds of the present invention as well as a standard antipsychotic agent are presented in Table 1.

[2] = target: T1, serotonin (5-hydroxytryptamine [5HT]) uptake (Rattus norvegicus, UniProt P31652); assay: ³H-serotonin uptake in rat whole brain and hypothalamic synaptosomes; assay type: biochemical; details: inhibition of [³H]-5HT uptake, 50 nM ³H-5HT, rat whole brain minus cerebella or hypothalamus, 37°C for 5 minutes; log-probit analysis; read-out: 5-HT-IC₅₀
T1 construct: Either whole brain minus cerebella or hypothalmus is weighed and homogenized in 9 volumes of ice-cold 0.32 M sucrose; from tissue; host or cells: Male Wistar rat brain (whole brain minus cerebella, or hypothalamus), S1 supernatant / synaptosomes
Procedure: This activity is determined in an assay which measures ³H-serotonin uptake in rat whole brain and hypothalamic synaptosomes. The assay described below is used as a biochemical screen for potential antidepressants which block serotonin (5-hydroxytryptamine [5HT]) uptake.
1. Krebs-Henseleit Bicarbonate Buffer, pH 7.4 (KHBB): Prepare a 1 liter batch containing the following salts.
The batch is aerated for 60 minutes with 95% 0₂/5% CO₂, the pH is checked to insure it is at 7.4 ± 0.1. 2. Add 0.32 M sucrose: 21.9 g of sucrose, q.s. to 200 ml. 3. A 0.1mM stock solution of serotonin creatinine SO₄ is made up in 0.01 N HCl. This is used to dilute the specific activity of the radiolabeled 5HT. 4. 5-[1,2-³H(N)]-Hydroxytryptamine creatinine sulfate (serotonin) specific activity 20-30 Ci/mmol is used. The final desired concentration of ³H-5HT in the assay is 50 nM. The dilution factor is 0.8. The KHBB is made up to contain 62.5 nM of [³H]-5HT. Add to 100 ml of KHBB.
5. For most assays, a 1mM stock solution of the test compound is made up in a suitable solvent and serially diluted such that the final concentration in the assay ranges from 2 X 10⁻⁸ to 2 X 10⁻⁵M. Seven concentrations are used for each assay.
Male Wistar rats are decapitated and the brain rapidly removed. Either whole brain minus cerebella or hypothalmus is weighed and homogenized in 9 volumes of ice-cold 0.32 M sucrose using a Potter-Elvejhem homogenizer. The homogenate is centrifuged at 1000 g for 10 minutes at 0-4°C. The supernatant (S₁) is decanted and is used for uptake determination.
800 µl KHBB + [³H]-5HT 20 µl Vehicle or appropriate drug 200 µl Tissue suspension concentration
Tubes are incubated at 37°C under a 95%O₂/5% CO₂ atmosphere for 5 minutes. For each assay, 3 tubes are incubated with 20 µl of vehicle at 0°C in an ice bath. After incubation all tubes are immediately centrifuged at 4000 g for 10 minutes. The supernatant fluid is aspirated and the pellets dissolved by adding 1 ml of solubilizer (Triton X-100 and 50% ethanol, 1:4 v/v). The tubes are vigorously vortexted, decanted into scintillation vials, and counted in 10 ml of Liquiscint scintillation counting cocktail. Active uptake is the difference between cpm at 37°C and 0°C. The per cent inhibition at each drug concentration is the mean of three determinations. IC₅₀ values are derived from log-probit analysis.

T1 sequence (P31652 whole entry): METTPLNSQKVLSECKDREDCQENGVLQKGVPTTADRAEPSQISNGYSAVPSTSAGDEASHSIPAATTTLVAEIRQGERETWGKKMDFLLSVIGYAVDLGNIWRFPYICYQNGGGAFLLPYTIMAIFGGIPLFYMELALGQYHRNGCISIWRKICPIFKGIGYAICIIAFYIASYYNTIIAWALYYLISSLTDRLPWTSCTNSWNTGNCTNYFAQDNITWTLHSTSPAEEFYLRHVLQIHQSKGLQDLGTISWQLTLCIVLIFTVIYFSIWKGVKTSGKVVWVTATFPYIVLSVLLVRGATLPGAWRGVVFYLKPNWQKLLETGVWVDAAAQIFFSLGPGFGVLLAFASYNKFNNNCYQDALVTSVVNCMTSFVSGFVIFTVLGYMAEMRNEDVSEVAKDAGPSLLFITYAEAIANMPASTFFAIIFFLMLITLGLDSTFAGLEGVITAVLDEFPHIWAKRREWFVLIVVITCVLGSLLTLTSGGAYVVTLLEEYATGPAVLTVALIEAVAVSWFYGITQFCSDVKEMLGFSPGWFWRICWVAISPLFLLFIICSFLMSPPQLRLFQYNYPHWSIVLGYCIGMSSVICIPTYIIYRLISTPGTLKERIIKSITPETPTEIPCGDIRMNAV

Structure (SMILES) | IC50 [2] | also measured
CN1CCN(C2=Nc3cc(Cl)ccc3Nc3ccccc32)CC1 [Clozapine, reference compound] |  | ED50 ([1]; apomorphine 1.5 mg/kg subcutaneously, climbing score vs control group set to 100%, linear regression analysis): 8.1 mg/kg
COc1cc(C(C)=O)ccc1OCCN1C2CCC1CC(c1noc3ccccc13)C2 (stereo not shown) [[4-[2-[3-[1,2-Benzisoxazol-3-yl]-8-azabicyclo[3.2.1]octan-8-yl]ethoxy]-3-methoxyphenyl]ethanone fumarate] | 10 nM | 
COc1cc(C(C)=O)ccc1OCCN1C2CCC1CC(c1noc3cc(F)ccc13)C2 (stereo not shown) [[4-[2-[3-[6-Fluoro-1,2-benzisoxazol-3-yl]-8-azabicyclo[3.2.1]octan-8-yl]ethoxy]-3-methoxyphenyl]ethanone fumarate] |  | ED50 [1]: 12.5 mg/kg
COc1cc(C(C)=O)ccc1OCCCN1C2CCC1CC(c1noc3cc(F)ccc13)C2 (stereo not shown) [[4-[3-[3-[6-Fluoro-1,2-benzisoxazol-3-yl]-8-azabicyclo[3.2.1]octan-8-yl]propoxy]-3-methoxyphenyl] ethanone monohydrochloride] |  | ED50 [1]: 5 mg/kg
COc1cc(C(C)=O)ccc1OCCCCN1C2CCC1CC(c1nsc3ccccc13)C2 (stereo not shown) [[4-[4-[3-[1,2-Benzisothiazol-3-yl]-8-azabicyclo[3.2.1]octan-8-yl]butoxy]-3-methoxyphenyl]ethanone monohydrochloride] | 27 nM | 
COc1cc(C(C)=O)ccc1OCCCCN1C2CCC1CC(c1n[nH]c3ccccc13)C2 (stereo not shown) [[4-[4-[3-[1H-Indazol-3-yl]-8-azabicyclo[3.2.1]octan-8-yl]butoxy]-3-methoxyphenyl]ethanone fumarate hemihydrate] | 70 nM | 
COc1cc(C(C)=O)ccc1OCCCCN1C2CCC1CC(c1n[nH]c3cc(F)ccc13)C2 (stereo not shown) [[4-[4-[3-[6-Fluoro-1H-indazol-3-yl]-8-azabicyclo[3.2.1]-octan-8-yl]butoxy]-3-methoxyphenyl]ethanone] | 20 nM | 
